Results reported in patent publication US9051270B2, “Pyridone amides as modulators of sodium channels” (Vertex Pharmaceuticals Incorporated, priority 2013, dated 2015).

These molecules were tested against human Nav1.8 (Homo sapiens (Human), UniProt Q9Y5Y9) (assay: E-VIPR optical membrane potential assay with electrical stimulation). Conditions: HEK cells expressing human Nav1.8.
Assay type: cell-based
Text: Sodium channels are voltage-dependent proteins that can be activated by inducing membrane voltage changes by applying electric fields. […] The instrument comprises a microtiter plate handler, an optical system for exciting the coumarin dye while simultaneously recording the coumarin and oxonol emissions, a waveform generator, a current- or voltage-controlled amplifier, and a device for inserting electrodes in well. Under integrated computer control, this instrument passes user-programmed electrical stimulus protocols to cells within the wells of the microtiter plate.
24 hours before the assay on E-VIPR, HEK cells expressing human Nav1.8 were seeded in 384-well poly-lysine coated plates at 15,000-20,000 cells per well. […] Cells were grown in vented cap flasks, in 90% humidity and 5% CO2.
To make the solution added volume of 10% Pluronic F127 stock equal to volumes of CC2-DMPE+DiSBAC6(3). The order of preparation was first mixing Pluronic and CC2-DMPE, then adding DiSBAC6(3) while vortexing, then adding Bath1+β-Cyclodextrin.
1) Pre-spotted compounds (in neat DMSO) into compound plates. […] Final compound plate volume was 80 μL (80-fold intermediate dilution from 1 μL DMSO spot; 160-fold final dilution after transfer to cell plate).
2) Prepared Hexyl Dye Solution.
3) Prepared cell plates. On the day of the assay, medium was aspirated and cells were washed three times with 100 μL of Bath1 Solution, maintaining 25 μL residual volume in each well.
4) Dispensed 25 μL per well of Hexyl Dye Solution into cell plates. Incubated for 20-35 minutes at room temp or ambient conditions.
5) Dispensed 80 μL per well of Bath1 into compound plates. Acid Yellow-17 (1 mM) was added and Potassium Chloride was altered from 4.5 to 20 mM depending on the NaV subtype and assay sensitivity.
6) Washed cell plates three times with 100 μL per well of Bath1, leaving 25 μL of residual volume. Then transferred 25 uL per well from Compound Plates to Cell Plates. Incubated for 20-35 minutes at room temp/ambient condition.
7) Read Plate on E-VIPR. […] A pre-stimulus recording was performed for 0.5 seconds to obtain the un-stimulated intensities baseline. The stimulatory waveform was followed by 0.5 seconds of post-stimulation recording to examine the relaxation to the resting state.
Data was analyzed and reported as normalized ratios of emission intensities measured in the 460 nm and 580 nm channels. The response as a function of time was reported as the ratios obtained using the following formula: […]
The data was further reduced by calculating the initial (Ri) and final (Rf) ratios. These were the average ratio values during part or all of the pre-stimulation period, and during sample points during the stimulation period. The response to the stimulus R=Rf/Ri was then calculated and reported as a function of time.
Control responses were obtained by performing assays in the presence of a compound with the desired properties (positive control), such as tetracaine, and in the absence of pharmacological agents (negative control). Responses to the negative (N) and positive (P) controls were calculated as above. The compound antagonist activity A is defined as:
[formula] where R is the ratio response of the test compound

human Nav1.8, sequence (Q9Y5Y9 whole entry): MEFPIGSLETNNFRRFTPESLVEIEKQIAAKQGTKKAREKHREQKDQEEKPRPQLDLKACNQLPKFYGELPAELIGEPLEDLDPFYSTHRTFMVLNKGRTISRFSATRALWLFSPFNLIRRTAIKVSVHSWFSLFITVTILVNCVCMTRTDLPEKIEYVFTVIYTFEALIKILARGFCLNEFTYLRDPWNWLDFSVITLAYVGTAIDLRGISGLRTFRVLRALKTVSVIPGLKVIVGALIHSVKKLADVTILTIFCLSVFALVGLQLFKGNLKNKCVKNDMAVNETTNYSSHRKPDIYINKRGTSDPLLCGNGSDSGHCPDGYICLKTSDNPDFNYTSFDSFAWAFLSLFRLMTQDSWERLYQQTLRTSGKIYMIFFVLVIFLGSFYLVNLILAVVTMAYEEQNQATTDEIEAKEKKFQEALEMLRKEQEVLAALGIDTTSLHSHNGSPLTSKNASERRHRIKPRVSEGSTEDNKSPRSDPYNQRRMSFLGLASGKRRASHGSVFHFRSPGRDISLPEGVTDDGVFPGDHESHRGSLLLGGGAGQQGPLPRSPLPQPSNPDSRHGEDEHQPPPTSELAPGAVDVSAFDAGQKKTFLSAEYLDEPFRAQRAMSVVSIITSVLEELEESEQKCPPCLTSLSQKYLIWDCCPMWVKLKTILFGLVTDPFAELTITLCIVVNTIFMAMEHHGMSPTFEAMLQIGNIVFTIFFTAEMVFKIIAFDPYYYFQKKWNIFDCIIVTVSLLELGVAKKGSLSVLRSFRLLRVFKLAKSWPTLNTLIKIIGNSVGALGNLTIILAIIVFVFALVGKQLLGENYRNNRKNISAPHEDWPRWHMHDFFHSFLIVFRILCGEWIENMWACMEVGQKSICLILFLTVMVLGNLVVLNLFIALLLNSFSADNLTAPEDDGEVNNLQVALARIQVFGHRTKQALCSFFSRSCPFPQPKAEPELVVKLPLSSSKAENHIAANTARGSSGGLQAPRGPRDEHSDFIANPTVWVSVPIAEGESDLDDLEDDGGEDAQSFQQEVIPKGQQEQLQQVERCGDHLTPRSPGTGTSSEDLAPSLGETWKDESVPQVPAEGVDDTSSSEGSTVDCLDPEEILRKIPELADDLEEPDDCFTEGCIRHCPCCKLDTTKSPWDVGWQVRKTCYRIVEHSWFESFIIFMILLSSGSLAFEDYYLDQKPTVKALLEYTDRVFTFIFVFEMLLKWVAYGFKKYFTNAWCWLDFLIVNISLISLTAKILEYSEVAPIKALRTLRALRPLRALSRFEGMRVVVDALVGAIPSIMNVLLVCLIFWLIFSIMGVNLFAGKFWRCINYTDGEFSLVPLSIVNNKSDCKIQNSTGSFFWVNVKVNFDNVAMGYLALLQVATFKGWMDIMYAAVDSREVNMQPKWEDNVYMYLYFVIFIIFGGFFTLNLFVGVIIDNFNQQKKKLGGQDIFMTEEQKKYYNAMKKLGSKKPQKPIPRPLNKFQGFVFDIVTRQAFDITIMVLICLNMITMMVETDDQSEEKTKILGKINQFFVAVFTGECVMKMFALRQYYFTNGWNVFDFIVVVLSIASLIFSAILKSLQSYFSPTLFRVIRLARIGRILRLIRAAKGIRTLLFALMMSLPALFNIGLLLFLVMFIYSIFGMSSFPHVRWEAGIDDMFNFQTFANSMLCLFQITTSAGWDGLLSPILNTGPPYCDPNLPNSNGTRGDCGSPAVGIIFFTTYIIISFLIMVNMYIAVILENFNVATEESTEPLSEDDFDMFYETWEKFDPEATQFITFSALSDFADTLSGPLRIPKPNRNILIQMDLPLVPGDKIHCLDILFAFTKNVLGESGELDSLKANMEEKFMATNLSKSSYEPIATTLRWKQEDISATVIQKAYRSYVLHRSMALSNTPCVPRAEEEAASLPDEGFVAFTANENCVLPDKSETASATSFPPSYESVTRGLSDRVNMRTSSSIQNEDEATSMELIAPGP

Molecule | IC50
O=C(Nc1cc[nH]c(=O)c1)c1cc(F)ccc1Oc1ccc(OCCCC(F)(F)F)cc1 [Compound 160, 5-fluoro-N-(2-oxo-1,2-dihydropyridin-4-yl)-2-(4-(4,4,4-trifluorobutoxy)phenoxy)benzamide] | 1390 nM
O=C(Nc1cc[nH]c(=O)c1)c1cc(OC(F)(F)F)ccc1Oc1ccccc1 [Compound 41, N-(2-oxo-1,2-dihydropyridin-4-yl)-2-phenoxy-5-(trifluoromethoxy)benzamide] | 260 nM
COc1cc(F)ccc1Oc1cc(C#N)ccc1C(=O)Nc1cc[nH]c(=O)c1 [Compound 22, 4-cyano-2-(4-fluoro-2-methoxyphenoxy)-N-(2-oxo-1,2-dihydropyridin-4-yl)benzamide] | 100 nM
Cc1cc(Cl)ccc1Oc1ccc(C(F)(F)F)cc1C(=O)Nc1cc[nH]c(=O)c1 [Compound 50, 2-(4-chloro-2-methylphenoxy)-N-(2-oxo-1,2-dihydropyridin-4-yl)-5-(trifluoromethyl)benzamide] | 19 nM
O=C(Nc1cc[nH]c(=O)c1)c1ccc(Cl)cc1Oc1ccc(F)cc1F [Compound 13, 4-chloro-2-(2,4-difluorophenoxy)-N-(2-oxo-1,2-dihydropyridin-4-yl)benzamide] | 106 nM
CCCOc1ccc(Oc2ccc(C(F)(F)F)cc2C(=O)Nc2cc[nH]c(=O)c2)cc1 [Compound 53, N-(2-oxo-1,2-dihydropyridin-4-yl)-2-(4-propoxyphenoxy)-5-(trifluoromethyl)benzamide] | 47 nM
O=C(Nc1cc[nH]c(=O)c1)c1ccc(C(F)(F)F)cc1OCC1CCOC1 (centres unmarked) [Compound 121, N-(2-oxo-1,2-dihydropyridin-4-yl)-2-((tetrahydrofuran-3-yl)methoxy)-4-(trifluoromethyl)benzamide] | 19000 nM
O=C(Nc1cc[nH]c(=O)c1)c1ccc(Cl)cc1Oc1c(F)cccc1F [Compound 19, 4-chloro-2-(2,6-difluorophenoxy)-N-(2-oxo-1,2-dihydropyridin-4-yl)benzamide] | 6000 nM
O=C(Nc1cc[nH]c(=O)c1)c1ccc(C(F)(F)F)cc1OC1CCC1 [Compound 122, 2-cyclobutoxy-N-(2-oxo-1,2-dihydropyridin-4-yl)-4-(trifluoromethyl)benzamide] | 4200 nM
CC(C)Oc1ccccc1Oc1ccc(C(F)(F)F)cc1C(=O)Nc1cc[nH]c(=O)c1 [Compound 64, 2-(2-isopropoxyphenoxy)-N-(2-oxo-1,2-dihydropyridin-4-yl)-5-(trifluoromethyl)benzamide] | 108 nM
2-(4-fluorophenoxy)-N-(1-(2-hydroxyethyl)-2-oxo-1,2-dihydropyridin-4-yl)-4-(trifluoromethyl)benzamide [Compound 85] | 2800 nM
O=C(Nc1cc[nH]c(=O)c1)c1ccc(C(F)(F)F)cc1Oc1ccccc1 [Compound 9, N-(2-oxo-1,2-dihydropyridin-4-yl)-2-phenoxy-4-(trifluoromethyl)benzamide] | 93 nM
O=C(Nc1cc[nH]c(=O)c1)c1cc(C(F)(F)F)ccc1Oc1ccc(Cl)cc1 [Compound 58, 2-(4-chlorophenoxy)-N-(2-oxo-1,2-dihydropyridin-4-yl)-5-(trifluoromethyl)benzamide] | 54 nM

Further lines, results first:

IC50 | Molecule
26 nM | COc1ccc(Oc2cc(C(F)(F)F)ccc2C(=O)Nc2cc[nH]c(=O)c2)cc1F [Compound 81, 2-(3-fluoro-4-methoxyphenoxy)-N-(2-oxo-1,2-dihydropyridin-4-yl)-4-(trifluoromethyl)benzamide]
78 nM | CC(C)(C)c1ccc(C(=O)Nc2cc[nH]c(=O)c2)c(Oc2ccc(C(F)(F)F)nc2)c1 [Compound 141, 4-(tert-butyl)-N-(2-oxo-1,2-dihydropyridin-4-yl)-2-((6-(trifluoromethyl)pyridin-3-yl)oxy)benzamide]
46 nM | O=C(Nc1cc[nH]c(=O)c1)c1ccc(C(F)(F)F)cc1Oc1ccccc1OC(F)F [Compound 83, 2-(2-(difluoromethoxy)phenoxy)-N-(2-oxo-1,2-dihydropyridin-4-yl)-4-(trifluoromethyl)benzamide]
8400 nM | Cc1ncccc1Oc1ccc(OC(F)(F)F)cc1C(=O)Nc1cc[nH]c(=O)c1 [Compound 151, 2-((2-methylpyridin-3-yl)oxy)-N-(2-oxo-1,2-dihydropyridin-4-yl)-5-(trifluoromethoxy)benzamide]
6600 nM | Cc1ncccc1Oc1ccc(C(F)(F)F)cc1C(=O)Nc1cc[nH]c(=O)c1 [Compound 150, 2-((2-methylpyridin-3-yl)oxy)-N-(2-oxo-1,2-dihydropyridin-4-yl)-5-(trifluoromethyl)benzamide]
1650 nM | Cn1cc(NC(=O)c2ccc(C(C)(C)C)cc2Oc2ccc(C(F)(F)F)nc2)ccc1=O [Compound 149, 4-(tert-butyl)-N-(1-methyl-6-oxo-1,6-dihydropyridin-3-yl)-2-((6-(trifluoromethyl)pyridin-3-yl)oxy)benzamide]
21000 nM | CC1(C)CC1COc1ccc(C(F)(F)F)cc1C(=O)Nc1cc[nH]c(=O)c1 (centres unmarked) [Compound 134, 2-((2,2-dimethylcyclopropyl)methoxy)-N-(2-oxo-1,2-dihydropyridin-4-yl)-5-(trifluoromethyl)benzamide]
17100 nM | COCCc1ccc(Oc2ccc(F)cc2C(=O)Nc2cc[nH]c(=O)c2)cc1 [Compound 102, 5-fluoro-2-(4-(2-methoxyethyl)phenoxy)-N-(2-oxo-1,2-dihydropyridin-4-yl)benzamide]
1150 nM | COc1ccc(Oc2ccc(F)cc2C(=O)Nc2cc[nH]c(=O)c2)cc1 [Compound 104, 5-fluoro-2-(4-methoxyphenoxy)-N-(2-oxo-1,2-dihydropyridin-4-yl)benzamide]
3350 nM | O=C(Nc1cc[nH]c(=O)c1)c1ccc(Cl)cc1Oc1ccc(C(F)(F)F)nc1 [Compound 143, 4-chloro-N-(2-oxo-1,2-dihydropyridin-4-yl)-2-((6-(trifluoromethyl)pyridin-3-yl)oxy)benzamide]
13 nM | COc1cc(F)ccc1Oc1ccc(Cl)cc1C(=O)Nc1cc[nH]c(=O)c1 [Compound 70, 5-chloro-2-(4-fluoro-2-methoxyphenoxy)-N-(2-oxo-1,2-dihydropyridin-4-yl)benzamide]
485 nM | CC1(C)CC1COc1cc(C(F)(F)F)ccc1C(=O)Nc1cc[nH]c(=O)c1 (centres unmarked) [Compound 124, 2-((2,2-dimethylcyclopropyl)methoxy)-N-(2-oxo-1,2-dihydropyridin-4-yl)-4-(trifluoromethyl)benzamide]
5100 nM | O=C(Nc1cc[nH]c(=O)c1)c1cc(C(F)(F)F)ccc1OCC1CCCC1 [Compound 130, 2-(cyclopentylmethoxy)-N-(2-oxo-1,2-dihydropyridin-4-yl)-5-(trifluoromethyl)benzamide]
765 nM | O=C(Nc1cc[nH]c(=O)c1)c1ccc(C(F)(F)F)cc1O[C@@H]1C[C@H]2CCC1C2 [Compound 118, 2-((2R)-bicyclo[2.2.1]heptan-2-yloxy)-N-(2-oxo-1,2-dihydropyridin-4-yl)-4-(trifluoromethyl)benzamide]
5000 nM | O=C(Nc1ccc(=O)[nH]c1)c1ccc(C(F)(F)F)cc1Oc1ccc(C(F)(F)F)nc1 [Compound 145, N-(6-oxo-1,6-dihydropyridin-3-yl)-4-(trifluoromethyl)-2-((6-(trifluoromethyl)pyridin-3-yl)oxy)benzamide]
1450 nM | Cc1cc(C)c(Oc2ccc(C(F)(F)F)cc2C(=O)Nc2cc[nH]c(=O)c2)cc1C [Compound 93, N-(2-oxo-1,2-dihydropyridin-4-yl)-5-(trifluoromethyl)-2-(2,4,5-trimethylphenoxy)benzamide]
